Test results reported in patent US20230310441A1, “TREATMENT FOR SCHIZOPHRENIA” (TAKEDA PHARMACEUTICAL COMPANY, priority 2020, published 2023).
Like-named read-outs stand apart in the source and are kept apart here.

Assays:
Type in all cases: in vivo, human
[1] = Phase 1 FIH study Part 4: safety and tolerability (TEAEs) in patients with stable schizophrenia
Text: (§1) Part 4 was a double-blind, weekly single dosing, parallel group design in patients with stable schizophrenia.
Participants in the placebo group received placebo on all study dosing days.
In Part 4, participants met schizophrenia criteria as defined by the Diagnostic and Statistical Manual of Mental Disorders, 5th Edition (DSM-5) by the Mini International Neuropsychiatric Interview (MINI), a Positive and Negative Syndrome Scale (PANSS) total score ≤90 and a sum of PANSS N1, N2, N3, N4, N6, G7 and G16≥15 at screening and baseline. In addition, participants had to be on a stable dose of antipsychotic medication for at least two months.
Safety measurements used in the phase 1 study included treatment-emergent adverse events (TEAEs), physical examinations, weight, height, BMI, vital signs, clinical laboratory evaluations, pregnancy monitoring, and ECG procedures.
Participants experiencing two or more different TEAEs were counted only once. Frequent TEAEs were defined as adverse events that occurred in at least two participants in any treatment. Participants were evaluated with respect to mood and alertness (BL-VAS) and suicidality (C-SSRS).

[2] = Phase 2 crossover study: plasma pharmacokinetics in schizophrenia subjects; conditions: for AUC(0-inf) / Cmax / Tmax: human, plasma, schizophrenia subjects; for Tmax: read-out: median tmax
Procedure: On Day 1 of each treatment period, following study drug administration, and commencing at approximately 2 h post-dose, subjects underwent PD tests for a total of approximately 4 h. Blood samples were collected at defined times after dosing to assess the PK of Compound (I). After the last PK collection at 6 h post-dose, subjects left the clinic. On Day 14 of each Treatment Period, subjects took the second set of PD tests along with a single time point PK collection. Samples for PK were also collected on Day 49 and at the final visit of the second treatment period. PD testing were performed in 3 blocks, separated by 2 breaks. The first block comprised the Grip Effort Task, the Progressive Ratio Test, and the Brief Assessment of Cognition in Schizophrenia (BACS). The BACS is a reliable and sensitive test battery specifically designed to efficiently assesses important cognitive deficits in patients with schizophrenia; accordingly, the BACS is suited for repeated testing in a clinical trial setting (Keefe et al., 2004). […] The following domains of cognitive function found to be consistently impaired in schizophrenia were assessed in this study: verbal memory; working memory; motor function; attention and processing speed; verbal fluency; and executive function. A composite score was calculated from each of the subset scores and used as a single endpoint for the assessment.
Dosing involved participants drinking a single bottle of oral suspension, containing either Compound (I) (40 or 160 mg Compound (I) mixed with 70 mL Tween/MC vehicle) or placebo (70 mL of Tween/MC vehicle) (Table 11). Participants were instructed to drink the full contents of the bottle, which was then rinsed twice with 35 mL water, which participants also drank. The initial dose level selected was 40 mg, which was adjusted to 160 mg following a planned interim analysis of available PK and safety data from emerging first-in-human cohort data.
The PK set consisted of all subjects who received at least 1 dose of study drug and had at least 1 measurable plasma concentration.
Compound (I) plasma concentrations were tabulated and summarized by descriptive statistics at each scheduled time point (mean, median, SD, percent coefficient of variation, minimum, and maximum) for each treatment and dose level. Individual subject plasma concentration data were listed.
The plasma PK parameters of Compound (I) were determined from the concentration-time profiles for all evaluable subjects. Actual sampling times, rather than scheduled sampling times, were used in all computations involving sampling times. The following PK parameters were calculated using non-compartmental analysis using Phoenix WinNonLin (version 6.3 or higher): area under the plasma concentration-time curve from time 0 to time t, area under the plasma concentration-time curve from time 0 to infinity (AUC∞), maximum observed plasma concentration (Cmax), time of first occurrence of Cmax (tmax), and terminal disposition phase half-life.

[3] = Phase 1 FIH study Part 4: plasma pharmacokinetics in patients with stable schizophrenia
Procedure: as §1
Participants were randomly assigned 2:1 to receive either Compound (I) or placebo. For the participants receiving Compound (I), a loading dose was administered on Day 1, and a maintenance dose, at half the initial dose, on Days 8, 15, and 22. Participants in the placebo group received placebo on all study dosing days.
Plasma and urine concentrations of Compound (I) and urine concentrations of cortisol and 6β-hydroxycortisol were measured by high performance liquid chromatography with tandem mass spectrometry. One 4 mL blood sample was collected per scheduled assessment. For participants receiving placebo, blood samples were analyzed only at pre-dose and around the time Cmax occurred (as emerging from the measurements of the first dose group) to ensure that no additional participants could have been on active treatment. Serial urine samples were collected for Part 1 cohorts 1-5 and Part 2 cohorts 1-4. Urine samples for participants receiving placebo were not analyzed. Urine samples were collected for the determination of cortisol and 6β-hydroxycortisol for Part 2 cohorts 1-4 and for all patients in Part 4. Samples for participants randomized to placebo were analyzed for these parameters.
Pharmacokinetic parameters were determined from the concentration-time profiles for all evaluable participants. Actual sampling times were used in all computations. pharmacokinetic parameters were calculated using non-compartmental analysis using Phoenix WinNonLin v8.0 or SAS v 9.4.
One participant in the 160/80 mg Compound (I) cohort in Part 4 (MRD study with patients with stable schizophrenia) missed the Day 15 dose. Pharmacokinetic concentrations for Day 22 for this participant were excluded from the mean plasma-concentration time profile and associated pharmacokinetic parameters were excluded from statistical analysis.
One participant in the 160/80 mg Compound (I) cohort in Part 4 (MRD study with patients with stable schizophrenia) terminated the study following dosing on Day 1. The participant's PK parameters were excluded from statistical analysis.
Another participant in the 160/80 mg Compound (I) cohort in Part 4 (MRD study with patients with stable schizophrenia) terminated the study following dosing on Day 22. Accordingly, all PK parameters for the participant other than tmax, Cmax, observed plasma concentration at the end of a dosing interval, AUC24, AUC48, and AUC96 were excluded from summary and statistical analysis.

[4] = Part 4 MRD, 160/80 mg, N = 16, participants (percent)
[5] = stable schizophrenia, oral, 160/80 mg, Day 22, N 14

With `C[C@H](NC(=O)Cn1nnc2ccccc2c1=O)c1ccc(OC(F)(F)F)cc1` [Compound (I), (S)-2-(4-oxobenzo[d][1,2,3]triazin-3(4H)-yl)-N-(1-(4-(trifluoromethoxy)phenyl)ethyl)acetamide] the TEAE intensity ([1]; Part 4 (MRD)) was “All TEAEs were mild”, the “frequency of TEAEs related to the study drug” value ([1]; Part 4 (MRD), patients with schizophrenia who received Compound (I)) was 56.3% and the “Any TEAE” value [1, 4] was 9 (56.3). For the same compound, the “TEAE Mild” value [1, 4] was 9 (56.3), the “TEAE Related” value [1, 4] was 9 (56.3) and the “increase of mean AUC∞ for a 4-fold increase in dose” value ([2]; 40 to 160 mg) was 3.5 fold. The “increase of mean Cmax for a 4-fold increase in dose” value ([2]; 40 to 160 mg) was 2.8 fold, the AUC(0-inf) ([2]; single oral dose 40 mg) was 217 µg·h/mL and the Cmax ([2]; single oral dose 40 mg) was 549 ng/mL. For the same compound, the Tmax ([2]; single oral dose 40 mg) was 1.83 h, the AUC(0-inf) ([2]; single oral dose 160 mg) was 763 µg·h/mL and the Cmax ([2]; single oral dose 160 mg) was 1520 ng/mL. For the same compound, the Tmax ([2]; single oral dose 160 mg) was 1.92 h, the “steady-state mean t1/2z” value ([3]; Part 4 MRD, schizophrenia participants) was 334 h and the “peak systemic exposure lower in schizophrenia participants compared with healthy participants” value ([3]; Part 4 vs healthy) was 23-30%. The “total systemic exposure lower for schizophrenia participants compared with healthy participants” value ([3]; Part 4 vs healthy) was 22-27%, the Cmax ([3]; human, plasma, oral, Part 4 MRD, 160/80 mg, up to 168 h post-dose, read-out: Mean Cmax (SD)) was 1270 ng/mL and the Tmax ([3]; human, plasma, oral, Part 4 MRD, schizophrenia patients, read-out: median tmax) was 1.8 h. It also gave an AUC(0-t) ([3]; human, plasma, po, stable schizophrenia, oral, 160/80 mg, Day 1, N 15) of 149 µg·h/mL, an AUC ([3]; human, plasma, po, stable schizophrenia, oral, 160/80 mg, Day 1, N 15, read-out: AUC24 (mean)) of 20.4 µg·h/mL and an AUC ([3]; human, plasma, po, stable schizophrenia, oral, 160/80 mg, Day 1, N 15, read-out: AUC96 (mean)) of 90.4 µg·h/mL. It also gave an AUC ([3]; human, plasma, po, stable schizophrenia, oral, 160/80 mg, Day 1, N 15, read-out: AUCτ (mean)) of 149 µg·h/mL, a Cmax ([3]; human, plasma, po, stable schizophrenia, oral, 160/80 mg, Day 1, N 15, read-out: Cmax (mean)) of 1270 ng/mL and a Tmax ([3]; human, plasma, po, stable schizophrenia, oral, 160/80 mg, Day 1, N 15, read-out: tmax (median)) of 2 h. The AUC(0-t) ([3]; human, plasma, po, stable schizophrenia, oral, 160/80 mg, Day 22, N 14) was 660 µg·h/mL, the AUC ([3]; human, plasma, po, stable schizophrenia, oral, 160/80 mg, Day 22, N 14, read-out: AUC24 (mean)) was 35.5 µg·h/mL and the AUC ([3]; human, plasma, po, stable schizophrenia, oral, 160/80 mg, Day 22, N 14, read-out: AUC96 (mean)) was 140 µg·h/mL. It also gave an AUC ([3]; human, plasma, po, stable schizophrenia, oral, 160/80 mg, Day 22, N 14, read-out: AUCτ (mean)) of 227 µg·h/mL, a Cmax ([3]; human, plasma, po, stable schizophrenia, oral, 160/80 mg, Day 22, N 14, read-out: Cmax (mean)) of 1880 ng/mL and a Tmax ([3]; human, plasma, po, stable schizophrenia, oral, 160/80 mg, Day 22, N 14, read-out: tmax (median)) of 1.8 h. The Vd/F ([3]; human, plasma, stable schizophrenia, oral, 160/80 mg, Day 22, N 14, read-out: Vz/F (mean)) was 172 L, the “CL/F (mean)” value [3, 5] was 365.5 mL/h and the “Cav,ss (mean)” value [3, 5] was 1352.6 ng/mL. The “Ctrough (mean)” value [3, 5] was 950.4 ng/mL and the “t1/2z (mean)” value [3, 5] was 333.8 h.
